Measured values as given in patent US6989263B1, “Method for identifying and using compounds that inactivate HIV-1 and other retroviruses by attacking highly conserved zinc fingers in the viral nucleocapsid protein” (The United States of America as represented by the …, priority 1994, dated 2006).

Key:
HIV-1 = conditions: incubation of HIV-1; cited from earlier work
HIV-1 (MN) p7NC = target: T1, HIV-1 (MN) p7NC (Human immunodeficiency virus type 1 group M subtype B, UniProt P05888); test: Intrinsic Trp-37 fluorescence quenching of p7NC; format: biochemical; conditions: Trp-37 fluorescence, zinc-reconstituted p7NC
T1 construct: The NC protein of HIV-1 (MN) p7NC was expressed in E. coli; made in house; host or cells: E. coli (vector pMAL-c)
Text: The NC protein of HIV-1 (MN) p7NC was expressed in E. coli. The coding sequence for HIV-1(MN) p7NC was cloned and expressed using an inducible E. coli promoter in the vector pMAL-c (New England Biolabs Inc., Beverly, Mass.). The protein was expressed as a maltose-binding fusion protein and released by proteolysis with Factor Xa. HIV-1(MN) p7NC was purified by HPLC and characterized, including complete amino acid sequence analysis. p7NC was purified by high-pressure liquid chromatography (HPLC) and reconstituted with two equivalents of zinc to generate native protein as described (M. F. Summers et al., Protein Sci. 1, 563 (1992)).
Coordination of Zn^+2 enhances the intrinsic fluorescence of the single tryptophan (Trp-37) in the second zinc finger. […] The initial phase of the reaction with Cu^+2 (T1/2<20 seconds) gave 70% quenching of the original fluorescence, followed by a much slower phase (T1/2 ca. 6 minutes), resulting in a final limiting quenching of 85%.
The first quenching phase was a second order reaction, whereas the second phase was independent of protein concentration or oxidizing species.

genomic RNA = conditions: cited from earlier work
HIV-1MN = test: Effect of NOBA on intact HIV-1MN (p24, zinc, TCIU of pelleted virus); format: cell-based; conditions: for Zn: pelleted virus

NC(=O)c1cccc(N=O)c1 [NOBA, 3-nitrosobenzamide]
viral inactivation (HIV-1): viral inactivation | change in intrinsic fluorescence of p7NC on incubation (HIV-1 (MN) p7NC): rapid biphasic decrease in fluorescence | levels of genomic RNA in the inactivated virus (genomic RNA): did not influence | virus inactivated (HIV-1MN; 0.03 mM, ratio of NOBA to zinc fingers 50:1): greater than 99% | tissue culture infectious unit (TCIU/ml) (HIV-1MN; NOBA 0.03 mM, 2 hours): 1.0 × 10^3 TCIU/ml | Zn (HIV-1MN; NOBA 0.03 mM, 2 hours): 0.21 µg/mL | Zn (HIV-1MN; NOBA 0.3 mM, 2 hours): 0.21 µg/mL | Zn (HIV-1MN; NOBA 3.0 mM, 2 hours): 0.11 µg/mL
